Results published in paper PMC7067379, “Mapping the S1 and S1’ subsites of cysteine proteases with new dipeptidyl nitrile inhibitors as trypanocidal agents” (PLoS Neglected Tropical Diseases, 2020).
Read-outs that look alike come from different tables or passages of the source.

Experiments:
[1] = system: LLCMK2 cells; assay: Mammalian cytotoxicity assay (MTT); assay type: cell-based; details: LLCMK2, 72 h, MTT; Table 2;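 note: Read-out is absorbance at 570 nm of formazan taken up in DMSO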
[2] = Mammalian cytotoxicity assay (MTT); assay type: cell-based; details: rhesus monkey, LLCMK2 cells;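 note: Read-out is absorbance at 570 nm of formazan taken up in DMSO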
[3] = target: cathepsin L (CatL) (Homo sapiens, UniProt P07711); assay: Cathepsin L enzyme inhibition; assay type: biochemical; details: for remaining activity at 10 µM: replicates = 2, n.i. = no inhibition observed at 10 μM; for Ki: SD lower than 15%, read-out: pKi CatL (converted)
[4] = target: recombinant cruzain (Cz) (Trypanosoma cruzi, UniProt P25779); assay: Cruzain enzyme inhibition; assay type: biochemical; details: for remaining activity at 10 µM: replicates = 2
Procedure: (§1) Enzyme inhibition studies for Cz and LmCPB were performed as previously described for Cz. The experimental procedures are described in the Supporting Information (see chapter S3). Cathepsins B, L, S were assayed as reported.

[5] = system: T. cruzi Tulahuen LacZ strain, intracellular amastigote forms; assay: In vitro trypanocidal activity on intracellular amastigote forms (Tulahuen strain); assay type: cell-based, Trypanosoma cruzi; details: for EC50: Trypanosoma cruzi, TULAHUEN
Procedure: Cells were evaluated in 96-well plates. Cells from the LLCMK2 lineage were plated at a concentration of 5x10^4 cells mL^-1. Trypomastigote forms of the Tulahuen LacZ strain were added at a concentration of 5×10^5 parasites mL^-1 and placed in the incubator at 37°C with 5% CO2 for 24 h. After the incubation period, the trypomastigote forms present were removed by successive washes with PBS, remaining only as intracellular amastigote forms. Compounds were added at different concentrations (1.95 μM to 250 μM serial dilutions) and incubated for 72 h. At the end of this period, the substrate CPRG (chlorophenol red β-D-galactopyranoside, 400 μM in 0.3% Triton X-100, pH 7.4) was added. […] Benznidazole was used as a positive control in the same concentrations as the substances, and DMSO as a negative control. Compounds were solubilized in DMSO. The selectivity index (SI) was calculated using the formula: […]. All statistical analyses were done with the program GraphPad Prism v.5.

[6] = target: Leishmania mexicana CPB (LmCPB) (Leishmania mexicana, UniProt P36400); assay: LmCPB enzyme inhibition; assay type: biochemical; details: for remaining activity at 10 µM: replicates = 2
Procedure: as §1

[7] = target: cathepsin S (CatS) (Homo sapiens, UniProt P25774); assay: Cathepsin S enzyme inhibition; assay type: biochemical; details: for Ki: SD lower than 15%, read-out: pKi CatS (converted)
Procedure: as §1

[8] = target: cathepsin B (CatB) (Homo sapiens, UniProt P07858); assay: Cathepsin B enzyme inhibition; assay type: biochemical
[9] = target: T1, Human recombinant cathepsin K (Homo sapiens, UniProt P43235); assay: Cathepsin K assay; assay type: biochemical; details: for remaining activity at 10 µM: read-out: remaining activity (%) at 10 μM, CatK
T1 sequence (P43235 115-329): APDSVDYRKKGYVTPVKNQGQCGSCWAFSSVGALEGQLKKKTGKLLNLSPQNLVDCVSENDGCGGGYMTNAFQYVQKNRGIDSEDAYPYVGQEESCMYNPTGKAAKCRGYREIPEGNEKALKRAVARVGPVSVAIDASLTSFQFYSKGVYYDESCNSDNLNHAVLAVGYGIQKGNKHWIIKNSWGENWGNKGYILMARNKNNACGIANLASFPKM
Procedure: Human recombinant cathepsin K was assayed on a FLUOSTAR Optima plate reader at 25 °C with an excitation wavelength of 360 nm and an emission wavelength of 440 nm on a 96 well plate. The enzyme solution (23 μg/mL in 50 mM sodium acetate pH 5.5, 50 mM NaCl, 0.5 mM EDTA, 5 mM DTT) was diluted 1:100 with assay buffer (100 mM sodium citrate buffer pH 5.0, 100 mM NaCl, 1 mM EDTA, 0.01% CHAPS) containing 5 mM DTT and was then incubated at 37 °C for 30 min for activation. A 1.5 mM stock solution of the substrate Z-Leu-Arg-AMC was prepared in DMSO. […] The assay was performed with a final concentration of cathepsin K of 1.73 ng/mL. Stock solutions of inhibitors were prepared in DMSO. The final DMSO concentration was 2% (4 μL). Into a well containing 194.5 μL assay buffer, 0.8 μL of the fluorogenic substrate, DMSO and inhibitor solution (3.2 μL) were added. Upon addition of cathepsin K (1.5 μL), the measurement was started and followed for 20 min.

[10] = LLCMK2, 72 h, MTT, Table 2, read-out: CC50 cytotoxicity
[11] = S1 Table, maximum concentration used 250 µM, read-out: CC50
[12] = 72 h, amastigote, Tulahuen strain, 72 h, Table 2, read-out: EC50 trypanocidal activity
[13] = T. cruzi amastigote form, S1 Table, read-out: pEC50 (converted)
[14] = 10 μM, replicates = 2, n.i. = no inhibition observed at 10 μM
[15] = S1 Table, maximum concentration used 250 µM, read-out: EC50 T. cruzi
[16] = amastigote forms of T. cruzi (Tuhaluen strain), Figs 12-14, unit inferred, read-out: EC50

Chain of recombinant cruzain (Cz) (P25779 123-337): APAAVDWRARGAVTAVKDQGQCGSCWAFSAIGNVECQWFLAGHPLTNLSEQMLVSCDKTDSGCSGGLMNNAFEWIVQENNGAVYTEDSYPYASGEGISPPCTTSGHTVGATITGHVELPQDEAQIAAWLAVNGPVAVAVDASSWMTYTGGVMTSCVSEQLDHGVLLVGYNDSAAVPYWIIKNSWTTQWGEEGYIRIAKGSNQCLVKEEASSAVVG
Chain of cathepsin S (CatS) (P25774 115-331): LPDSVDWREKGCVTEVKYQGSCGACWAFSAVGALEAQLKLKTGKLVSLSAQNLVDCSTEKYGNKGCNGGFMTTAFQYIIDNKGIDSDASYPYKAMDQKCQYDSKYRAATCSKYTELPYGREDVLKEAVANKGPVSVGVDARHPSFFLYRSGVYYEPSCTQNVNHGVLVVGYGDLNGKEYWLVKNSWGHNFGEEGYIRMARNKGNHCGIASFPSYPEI
Chain of Leishmania mexicana CPB (LmCPB) (P36400 126-443): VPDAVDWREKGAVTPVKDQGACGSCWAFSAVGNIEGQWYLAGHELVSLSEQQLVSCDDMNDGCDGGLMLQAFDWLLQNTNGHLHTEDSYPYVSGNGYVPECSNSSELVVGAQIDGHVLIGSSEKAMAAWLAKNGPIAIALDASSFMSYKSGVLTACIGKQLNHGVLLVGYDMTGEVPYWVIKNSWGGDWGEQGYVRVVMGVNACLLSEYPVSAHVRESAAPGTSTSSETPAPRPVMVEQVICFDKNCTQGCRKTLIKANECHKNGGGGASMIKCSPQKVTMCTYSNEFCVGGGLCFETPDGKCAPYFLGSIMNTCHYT
Chain of cathepsin L (CatL) (P07711 114-333): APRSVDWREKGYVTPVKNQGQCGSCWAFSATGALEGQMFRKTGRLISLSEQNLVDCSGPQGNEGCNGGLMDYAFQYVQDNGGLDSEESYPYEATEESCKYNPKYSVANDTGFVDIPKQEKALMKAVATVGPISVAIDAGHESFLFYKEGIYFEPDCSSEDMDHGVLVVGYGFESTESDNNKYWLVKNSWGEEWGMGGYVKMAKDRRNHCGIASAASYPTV

SMILES | CC50 at 72 h [2, 10] [µM] | CC50 at 72 h [2, 11] [µM] | remaining activity at 10 µM [3] [%] | remaining activity at 10 µM [4] [%] | EC50 [5, 12] [µM] | EC50 [5, 13] [µM] | remaining activity at 10 µM [6] [%] | remaining activity (%) at 10 μM, CatB [8, 14] | melting point [°C] | remaining activity at 10 µM [9, 14] [%] | Ki [3] [µM] | EC50 [5, 15] [µM] | EC50 [5, 16] [µM] | Ki [7] [µM] | further results
C[C@H](OCc1ccccc1)[C@H](C#N)NC(=O)[C@H](Cc1ccccc1)NC(=O)c1cc(C(C)(C)C)nn1C [Compound 57, N-((S)-1-(((1S,2S)-2-(Benzyloxy)-1-cyanopropyl)amino)-1-oxo-3-phenylpropan-2-yl)-3-(tert-butyl)-1-methyl-1H-pyrazole-5-carboxamide] | ~125 | 141 | 85 | 75 | 4.3 ± 0.32 | 3.98 | 72 | n.i.^c | 123 to 124 | 97 | – | – | – | – | CC50 [1]: > 100 µM; remaining activity (%) at 10 μM, CatS [7, 14]: n.i.^c
CC(C)C[C@H](NC(=O)c1cc(C(C)(C)C)nn1C)C(=O)N[C@H](C#N)[C@@H](C)OCc1ccccc1 [Compound 58, N-((S)-1-(((1R,2R)-2-(Benzyloxy)-1-cyanopropyl)amino)-4-methyl-1-oxopentan-2-yl)-3-(tert-butyl)-1-methyl-1H-pyrazole-5-carboxamide] | – | > 100 | – | – | – | > 100 | – | – | 96 to 97 | – | 0.0631 | > 100 | > 100 | 0.0501 | Ki ([4]; SD lower than 15%, read-out: pKi Cz (converted)): 0.0126 µM; difference in pKi, Cz ([4]; relative to compound 9, sign not given, direction by cell colour or wording): 0.6; Ki ([6]; SD lower than 15%, read-out: pKi LmCPB (converted)): 0.02 µM; difference in pKi, LmCPB ([6]; relative to compound 11, sign not given, direction by cell colour or wording): 0.4; Ki ([8]; SD lower than 15%, read-out: pKi CatB (converted)): 7.94 µM; Ki ([9]; SD lower than 15%, read-out: pKi CatK (converted)): 0.0158 µM
CC(C)C[C@H](NC(=O)c1cc(C(C)(C)C)nn1C)C(=O)N[C@@H](C#N)[C@H](C)OCc1ccccc1 [Compound 59, N-((S)-1-(((1S,2S)-2-(Benzyloxy)-1-cyanopropyl)amino)-4-methyl-1-oxopentan-2-yl)-3-(tert-butyl)-1-methyl-1H-pyrazole-5-carboxamide] | – | > 100 | 90 | 60 | – | > 100 | 75 | n.i.^c | 110 to 111 | – | – | > 100 | > 100 | – | remaining activity at 10 µM [7, 14]: 85%; remaining activity (%) at 10 μM, CatK [9, 14]: n.i.^c
C[C@@H](O)[C@@H](C#N)NC(=O)[C@H](Cc1ccccc1)NC(=O)c1cc(C(C)(C)C)nn1C [Compound 65, 3-(tert-Butyl)-N-((S)-1-(((1R,2R)-1-cyano-2-hydroxypropyl)amino)-1-oxo-3-phenylpropan-2-yl)-1-methyl-1H-pyrazole-5-carboxamide] | > 100 | – | – | 68 | 70.8 ± 8.79 | 79.4 | 69 | – | 159 to 160 | 86 | 5.01 | – | – | 5.01 | SI (selective index) ([5]; from EC50 (T. cruzi) and CC50 (LLCMK2), Table 2): > 1.4; remaining activity at 10 µM [8, 14]: 92%
